Results from patent EP4790048A1, “S1PR4 REGULATOR COMPOUND FOR AUTOIMMUNE DISEASE TREATMENT AND APPLICATION THEREOF” (Shengyuan Zetong (Shanghai) Pharmaceutical Co., Ltd, priority 2023, dated 2025).
Where two headings read alike, the source gives them in different places.

Assays:
[1] = target: T1, S1PR5 (Homo sapiens, UniProt Q9H228); test: FLIPR assay, S1PR5-CHO cell line; assay type: cell-based; details: mean ± SD
T1 construct: expressed in transfected cells

[2] = system: mouse; test: DSS mouse acute UC model, dosing concurrent with modeling (Example 7); assay type: in vivo; details: intragastric, Compound 30 0.3, 1, 3 mg/kg, Compound 67 1 mg/kg; for colon length: positive control RPC1063 1 mg/kg
Experimental: Mouse models were established using DSS, with the protocol being 2.5% DSS in drinking water for 5 days followed by ad libitum normal drinking water for 2 days. Intragastric administration was performed concurrently with modeling, and RPC1063 was used as the positive control drug. The specific groupings were as follows: RPC1063 was administered intragastrically at 1 mg/kg. Compound 30 was tested at three doses: 0.3 mg/kg, 1 mg/kg, and 3 mg/kg. Compound 38 was administered at 5 mg/kg, while Compounds 53, 67, 77, and 80 were each administered at 1 mg/kg.

[3] = target: T2, S1PR3 (Homo sapiens, UniProt Q99500); test: β-arrestin recruitment, PathHunter CHO-K1-S1PR3 cells; assay type: cell-based; details: mean ± SD
T2 construct: expressed in transfected cells

[4] = system: BALB/c mice; test: Imiquimod-induced mouse psoriasis model; assay type: in vivo
From the text: The imiquimod-induced mouse psoriasis model is a commonly used model for psoriasis research. This model uses the topical immune modulator imiquimod (IMQ) to induce lesions similar to human psoriasis on the skin of mice.
• Mice: Female BALB/c mice, aged 6-8 weeks. • Imiquimod cream: 5% IMQ cream. • Experimental Procedures • Animal preparation: Mice were acclimated to the laboratory environment for at least one week.
Random grouping: Generally, 5 mice were included in each group. Specifically, the groups were as follows: adalimumab injection group for positive control; compounds 30 and 67 administered by gavage, divided into 3 dosage groups: 0.3, 1, and 3 mg/kg.
The hair on the backs of the mice in each group was shaved with a razor, covering an area of approximately 2 × 3 cm^2.
5% IMQ cream was applied daily to the shaved area on the mouse backs at a dose of 62.5 mg of IMQ cream for 6-7 consecutive days. Skin reactions of the mice were observed after 7 days, including erythema, scaling, and skin thickening.

[5] = system: SD rats; test: MIA-induced osteoarthritis (OA) model in rats; assay type: in vivo; details: for gross observation of knee joint femoral condyle cartilage: Day 15 dissection, 5 rats per group
Experimental: SD rats, approximately 200 g, male. Purchased from Shanghai Bikai Animal Co., Ltd. Adaptive feeding was conducted for about 7 days.
3.1.1 Anesthesia: the rat was placed into the anesthesia box, the O2 gas source and the gas delivery pump were turned on, and the gas adjustment knob was rotated to set the ratio of O2 to isoflurane at 8:2. The anesthesia depth knob was adjusted: first the indicator was turned to 3 to induce deep anesthesia in the rat; during the subsequent surgical procedure, the indicator was adjusted to 1.5 to maintain anesthesia. The three-way valve was opened to deliver gas into both the anesthesia box and the rat anesthesia mask.
The syringe needle was inserted at a 45° angle to the plateau along the lateral side of the patellar ligament, as shown in the figure below. The Control group is injected with 50 µl of 0.9% sterile normal saline, while the other groups are injected with 50 µl of sterile normal saline containing 3 mg of MIA. After the procedure, the rat was removed, placed in a breeding cage, and irradiated with an incandescent lamp to help restore body temperature until the rat recovers from anesthesia.
The Control group was administered 5% DMSO + 35% PEG400 + 60% normal saline. The compounds were dissolved in a system consisting of 5% dimethyl sulfoxide (DMSO), 35% polyethylene glycol 400 (PEG 400), and 60% normal saline. The drug solutions were prepared on the evening one day before administration.
The rats were acclimated for 1 week and randomly divided into groups, with a total of 10 rats. The Control group was administered 5% DMSO + 35% PEG400 + 60% normal saline, while the other groups were given the test compounds dissolved in 5% DMSO + 35% PEG400 + 60% normal saline.
3.4.1. From Day 1 to Day 14 of the experiment, the rats were administered intragastrically once daily, with a gavage volume of 5 mL/kg. The Control group and Model group were given 5% DMSO + 35% PEG400 + 60% normal saline throughout the experiment, while the other groups were administered the corresponding drugs.
On Day 7 and Day14 of the experiment, behavioral and joint pain tests were performed on the rats. To minimize confounding factors, the tests were conducted 1 hour after administration at a fixed time, preventing variations in the rats' condition at different time points from affecting the experimental results. The rats were allowed to acclimate to the environment for 20 minutes before the start of the experiment. • (1) Observation of walking distance and rearing times within five minutes: the dimensions of the resin box were measured and a paper sheet of the corresponding size was prepared. 1 cm × 1 cm grids were drawn on the paper sheet. The paper sheet was sealed with a transparent tape to prevent damage from rat excrement. Then the paper sheet with 1 cm × 1 cm grids was placed into the transparent resin box, ensuring a flat bottom. A camera device was used to record the walking process and trajectory of the rat within 5 minutes, and the walking distance and rearing times of the rat were counted. • (2) Joint Pain Assessment: After fixing the rat and allowing it to calm down, its knee joint was gently bent. […] The knee joint pain severity in rats is reflected by the scores of leg withdrawal and vocalization. The joint pain assessment was performed every 5 seconds for a total of 5 times.
On Day 15 of the experiment, the rats were anesthetized, and blood was collected from their eyeballs. The serum was left to stand overnight at 4°C, centrifuged at 3600 rpm for 15 minutes at 4°C. The serum was aspirated and stored at -80°C. The rats were sacrificed by cervical dislocation. An incision was made along the knee joint on ice to remove fur, muscle, and other tissues. For each group, 5 rats were used; bilateral knee joints were dissected, and the color, roughness, and integrity of the femoral condyle surface were observed. The knee joint cartilage was then harvested and cryopreserved at -80°C. […]

[6] = gavage 0.3, 1 and 3 mg/kg, after 7 days of IMQ
[7] = high dose of 3 mg/kg, compared with adalimumab
[8] = DAY7, 0.3 mg/kg intragastric once daily, vs Model group
[9] = DAY7, 3 mg/kg intragastric once daily, vs Model group
[10] = DAY14, 0.3 mg/kg, vs Model group

T2 sequence (Q99500 whole entry, species assumed): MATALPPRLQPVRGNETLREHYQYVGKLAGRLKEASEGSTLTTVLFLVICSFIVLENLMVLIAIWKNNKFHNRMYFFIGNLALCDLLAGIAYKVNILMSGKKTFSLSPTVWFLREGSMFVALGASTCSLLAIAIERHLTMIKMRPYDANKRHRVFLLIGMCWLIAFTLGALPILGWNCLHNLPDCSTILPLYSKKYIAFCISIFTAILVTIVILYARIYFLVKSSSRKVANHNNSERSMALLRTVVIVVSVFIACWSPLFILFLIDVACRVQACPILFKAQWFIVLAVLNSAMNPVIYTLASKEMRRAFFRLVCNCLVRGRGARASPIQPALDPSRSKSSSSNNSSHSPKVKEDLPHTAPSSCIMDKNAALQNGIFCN
T1 sequence (Q9H228 whole entry, species assumed): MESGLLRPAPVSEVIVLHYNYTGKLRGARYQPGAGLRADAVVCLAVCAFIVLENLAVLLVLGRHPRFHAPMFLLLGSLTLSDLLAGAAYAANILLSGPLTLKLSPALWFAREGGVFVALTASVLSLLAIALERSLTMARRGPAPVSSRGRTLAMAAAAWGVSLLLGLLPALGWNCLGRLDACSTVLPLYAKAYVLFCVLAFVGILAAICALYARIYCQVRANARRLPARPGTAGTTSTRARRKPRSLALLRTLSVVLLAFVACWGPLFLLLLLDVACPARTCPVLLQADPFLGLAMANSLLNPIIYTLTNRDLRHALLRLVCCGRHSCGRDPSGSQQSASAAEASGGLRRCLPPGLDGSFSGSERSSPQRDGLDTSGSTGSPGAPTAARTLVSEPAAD

With CCc1cc(/C(C)=N/OCc2ccc(-c3cnc(F)cn3)c(C)c2)ccc1CN1CC[C@H](C(=O)O)C1 [Compound 67, (S, E)-1-(2-ethyl-4-(1-(((4-(5-fluoropyrazin-2-yl)-3-methylbenzyl)oxy)imino)ethyl)benzyl)pyrrolidine-3-carboxylic acid] the EC50 ([1]; read-out: EC50) was 3.74 ± 0.221 µM, the DAI scores [2] was “favorable effects” and the body weight [2] was “less body weight loss”. For the same compound, the colon length [2] was “significant efficacy”, the EC50 ([3]; read-out: EC50) was > 10 µM and the “skin reactions (erythema, scaling, skin thickening)” value (shortened to “skin reactions”) [4, 6] was “significant alleviating effects at all concentrations in a dose-dependent manner”. For the same compound, the “skin reactions” value [4, 7] was “therapeutic effects similar to those of adalimumab”, the “OARSI score (severity of knee osteoarthritis)” value (“OARSI score” below) ([5]; 1 mg/kg, vs Model group) was “showed significant effects” and the “OARSI score” value ([5]; 3 mg/kg, vs Model group) was “showed significant effects”. The pain index [5, 8] was “significantly decreased”, the pain index ([5]; DAY7, 1 mg/kg intragastric once daily, vs Model group) was “significantly decreased” and the five-minute walking distance ([5]; DAY7, 1 mg/kg, vs Model group) was “increased significantly”. The pain index [5, 9] was “significantly decreased”, the five-minute walking distance [5, 10] was “increased significantly” and the five-minute walking distance ([5]; DAY14, 1 mg/kg, vs Model group) was “increased significantly”. The pain index ([5]; DAY14, 1 mg/kg, vs Model group) was “significantly decreased”, the five-minute walking distance ([5]; DAY14, 3 mg/kg, vs Model group) was “increased significantly” and the pain index ([5]; DAY14, 3 mg/kg, vs Model group) was “significantly decreased”. The “gross observation of knee joint femoral condyle cartilage” value [5] was “cartilage of most rat knee joints became smooth and bright”, the “serum IL-10 level” value ([5]; Elisa, vs Model group) was “tended to upregulate” and the “serum IL-17 level” value ([5]; Elisa, vs Model group) was “tended to upregulate”. For the same compound, the “Safranin O-Fast Green staining of knee joints” value ([5]; vs Model group) was “enhanced Safranin O staining”.
For CCc1cc(/C(C)=N/OCc2ccc(-c3ccccc3)c(C)c2)ccc1CN1CC[C@H](C(=O)O)C1 [Compound 30], the EC50 [1] was “no agonist activity”, the EC50 ([1]; read-out: EC50) was > 10 µM and the DAI scores [2] was “favorable effects”. The body weight [2] was “concentration-dependent recovery”, the colon length [2] was “significant efficacy” and the EC50 [3] was “no agonist activity”. The EC50 ([3]; read-out: EC50) was > 10 µM, the “skin reactions” value [4, 6] was “significant alleviating effects at all concentrations in a dose-dependent manner” and the “skin reactions” value [4, 7] was “therapeutic effects similar to those of adalimumab”. For the same compound, the “OARSI score” value ([5]; 0.3 mg/kg, vs Model group) was “showed significant differences”, the “OARSI score” value ([5]; 1 mg/kg, vs Model group) was “showed significant differences” and the “OARSI score” value ([5]; 3 mg/kg, vs Model group) was “showed significant differences”. For the same compound, the pain index [5, 8] was “significantly decreased”, the five-minute walking distance ([5]; DAY7, 0.3 mg/kg, vs Model group) was “increased significantly” and the five-minute walking distance ([5]; DAY7, 1 mg/kg, vs Model group) was “increased significantly”. For the same compound, the pain index [5, 9] was “significantly decreased”, the five-minute walking distance [5, 10] was “increased significantly” and the pain index ([5]; DAY14, 1 mg/kg, vs Model group) was “significantly decreased”. The five-minute walking distance ([5]; DAY14, 3 mg/kg, vs Model group) was “increased significantly”, the pain index ([5]; DAY14, 3 mg/kg, vs Model group) was “significantly decreased” and the “gross observation of knee joint femoral condyle cartilage” value [5] was “knee cartilage in most rats became smooth and glossy”. For the same compound, the “Safranin O-Fast Green staining of knee joints” value ([5]; vs Model group) was “enhanced safranin staining”.
